Results reported in article PMC5702617, “Novel peptide probes to assess the tensional state of fibronectin fibers in cancer” (Nature Communications, 2017).
“And” between values parts separate entries of the source, which are not always exact repeats. Equal values may be shown once. Residues, ends and D or L forms follow the SMILES beside them. No end group written: not given here. *: point of attachment. X1 = O=C(O)CN1CCN(CC(=O)O)CCN(C(CCC(=O)NCCN2C(=O)CC(*)C2=O)C(=O)O)CC1

Columns and labels:
PC-3-bearing mice [1] = test: In vivo blocking experiment in PC-3 tumor grafted mice; design: species or system mouse; conditions: n = 4
Protocol: (§1) For the biodistribution experiments, PC-3 tumor grafted mice were injected into the tail vein with 150 kBq ^111In-FnBPA5 or ^111In-scrambled FnBPA5 (2.4 nmol, 100 µL PBS). For each peptide, groups of four mice were sacrificed at 1, 4, 24, and 96 h post injection. Blocking experiment (n = 4) was performed by injection of an excess of peptide (100 µg, 24 nmol in 100 µL PBS) directly before the administration of the corresponding radiolabeled peptide. The organs were collected, weighed and counted for activity with a γ counter (Packard Cobra II Auto, Gamma, PerkinElmer AG, Schwerzenbach, Switzerland) 4 h p.i. The results were expressed as a percentage of injected activity per gram of tissue (% IA per g tissue). The Student's t test analyses were considered as type 3 (two sample unequal variance) and statistical significance was assumed for p-values smaller than 0.05.

PC-3-bearing mice [2] = test: SPECT/CT imaging of PC-3-bearing mice; assay type: in vivo, mouse
Protocol: Thirty-three days from the inoculation of the tumor cells, the mice were intravenously injected with ~15 MBq ^111In-FnBPA5 resp. ^111In-scrambled FnBPA5-NODAGA (2.4 nmol, 100 µL PBS) into the tail vein. […] The images were reconstituted and processed with InVivoScope® software (Bioscan Inc., Washington DC, USA).

[3] = In vitro plasma stability; assay type: in vitro ADME, human; conditions: 37°C, 1 hour time point, RP-HPLC, means from three experiments
Protocol: The stability of peptides in blood is often limited as they are rapidly cleaved by catalytic enzymes found in tissue and blood, resulting in a short biological half-life. […] To verify whether the FnBPA5 peptide can be used for in vivo applications, we next performed a plasma stability test. The metabolic stability of the peptide radiotracer ^111In-FnBPA5 was tested in vitro by incubating the radiolabeled FnBPA5 at 37°C with human blood plasma, or water as control. The unbound peptide fraction was separated from the plasma proteins at different time points (0, 1, 24, 48, and 72 h) and was analyzed by reversed-phase high-pressure liquid chromatography (RP-HPLC).
After that, the samples were filtrated using a Thomson Single StEP Filter vial 0.45 μm PVDF (Thomson Instrument Company, Oceanside, USA) and the supernatant was analyzed by reversed-phase HPLC (Varian Prostar HPLC System, SpectraLab Scientific Inc., Canada) using a D-Bio Discovery Wide Pore C18 column (25 cm × 4.6 mm; 5 μm).

[4] = Biodistribution in PC-3 tumor grafted mice; assay type: in vivo, mouse; conditions: female, CD1 nude, mouse, in vivo, iv, total radioactivity; 1 h p.i.; PC-3 grafted mice, i.v. 150 kBq (2.4 nmol, 100 µL PBS), γ counter, mean ± SD, n = 4; read-out: Biodistribution, Kidneys
Protocol: (§2) Experiments were performed 3–4 weeks after inoculation.
as §1

PC-3-bearing mice [5] = test: Biodistribution in PC-3 tumor grafted mice; assay type: in vivo, mouse; conditions: PC-3 grafted mice, i.v. 150 kBq (2.4 nmol, 100 µL PBS), γ counter, mean ± SD, n = 4
Protocol: as §2, §1

[6] = molecular target: fibronectin N-terminal fragments (Homo sapiens) (UniProt P02751); conditions: cited from earlier work
Chain of fibronectin N-terminal fragments (Homo sapiens) (P02751 50-273): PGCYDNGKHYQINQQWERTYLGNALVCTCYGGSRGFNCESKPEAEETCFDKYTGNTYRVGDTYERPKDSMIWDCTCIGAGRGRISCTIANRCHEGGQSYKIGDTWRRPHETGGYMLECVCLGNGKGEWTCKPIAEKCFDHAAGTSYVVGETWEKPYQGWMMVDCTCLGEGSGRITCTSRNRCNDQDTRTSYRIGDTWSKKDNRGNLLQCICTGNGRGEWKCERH

[7] = molecular target: Fn fibers in PC-3 xenograft tumor tissue of CD1 nude mice (not stated (human PC-3 xenograft in CD1 nude mouse)) (UniProt P11276)
Chain of Fn fibers in PC-3 xenograft tumor tissue of CD1 nude mice (not stated (human PC-3 xenograft in CD1 nude mouse)) (P11276 33-2477): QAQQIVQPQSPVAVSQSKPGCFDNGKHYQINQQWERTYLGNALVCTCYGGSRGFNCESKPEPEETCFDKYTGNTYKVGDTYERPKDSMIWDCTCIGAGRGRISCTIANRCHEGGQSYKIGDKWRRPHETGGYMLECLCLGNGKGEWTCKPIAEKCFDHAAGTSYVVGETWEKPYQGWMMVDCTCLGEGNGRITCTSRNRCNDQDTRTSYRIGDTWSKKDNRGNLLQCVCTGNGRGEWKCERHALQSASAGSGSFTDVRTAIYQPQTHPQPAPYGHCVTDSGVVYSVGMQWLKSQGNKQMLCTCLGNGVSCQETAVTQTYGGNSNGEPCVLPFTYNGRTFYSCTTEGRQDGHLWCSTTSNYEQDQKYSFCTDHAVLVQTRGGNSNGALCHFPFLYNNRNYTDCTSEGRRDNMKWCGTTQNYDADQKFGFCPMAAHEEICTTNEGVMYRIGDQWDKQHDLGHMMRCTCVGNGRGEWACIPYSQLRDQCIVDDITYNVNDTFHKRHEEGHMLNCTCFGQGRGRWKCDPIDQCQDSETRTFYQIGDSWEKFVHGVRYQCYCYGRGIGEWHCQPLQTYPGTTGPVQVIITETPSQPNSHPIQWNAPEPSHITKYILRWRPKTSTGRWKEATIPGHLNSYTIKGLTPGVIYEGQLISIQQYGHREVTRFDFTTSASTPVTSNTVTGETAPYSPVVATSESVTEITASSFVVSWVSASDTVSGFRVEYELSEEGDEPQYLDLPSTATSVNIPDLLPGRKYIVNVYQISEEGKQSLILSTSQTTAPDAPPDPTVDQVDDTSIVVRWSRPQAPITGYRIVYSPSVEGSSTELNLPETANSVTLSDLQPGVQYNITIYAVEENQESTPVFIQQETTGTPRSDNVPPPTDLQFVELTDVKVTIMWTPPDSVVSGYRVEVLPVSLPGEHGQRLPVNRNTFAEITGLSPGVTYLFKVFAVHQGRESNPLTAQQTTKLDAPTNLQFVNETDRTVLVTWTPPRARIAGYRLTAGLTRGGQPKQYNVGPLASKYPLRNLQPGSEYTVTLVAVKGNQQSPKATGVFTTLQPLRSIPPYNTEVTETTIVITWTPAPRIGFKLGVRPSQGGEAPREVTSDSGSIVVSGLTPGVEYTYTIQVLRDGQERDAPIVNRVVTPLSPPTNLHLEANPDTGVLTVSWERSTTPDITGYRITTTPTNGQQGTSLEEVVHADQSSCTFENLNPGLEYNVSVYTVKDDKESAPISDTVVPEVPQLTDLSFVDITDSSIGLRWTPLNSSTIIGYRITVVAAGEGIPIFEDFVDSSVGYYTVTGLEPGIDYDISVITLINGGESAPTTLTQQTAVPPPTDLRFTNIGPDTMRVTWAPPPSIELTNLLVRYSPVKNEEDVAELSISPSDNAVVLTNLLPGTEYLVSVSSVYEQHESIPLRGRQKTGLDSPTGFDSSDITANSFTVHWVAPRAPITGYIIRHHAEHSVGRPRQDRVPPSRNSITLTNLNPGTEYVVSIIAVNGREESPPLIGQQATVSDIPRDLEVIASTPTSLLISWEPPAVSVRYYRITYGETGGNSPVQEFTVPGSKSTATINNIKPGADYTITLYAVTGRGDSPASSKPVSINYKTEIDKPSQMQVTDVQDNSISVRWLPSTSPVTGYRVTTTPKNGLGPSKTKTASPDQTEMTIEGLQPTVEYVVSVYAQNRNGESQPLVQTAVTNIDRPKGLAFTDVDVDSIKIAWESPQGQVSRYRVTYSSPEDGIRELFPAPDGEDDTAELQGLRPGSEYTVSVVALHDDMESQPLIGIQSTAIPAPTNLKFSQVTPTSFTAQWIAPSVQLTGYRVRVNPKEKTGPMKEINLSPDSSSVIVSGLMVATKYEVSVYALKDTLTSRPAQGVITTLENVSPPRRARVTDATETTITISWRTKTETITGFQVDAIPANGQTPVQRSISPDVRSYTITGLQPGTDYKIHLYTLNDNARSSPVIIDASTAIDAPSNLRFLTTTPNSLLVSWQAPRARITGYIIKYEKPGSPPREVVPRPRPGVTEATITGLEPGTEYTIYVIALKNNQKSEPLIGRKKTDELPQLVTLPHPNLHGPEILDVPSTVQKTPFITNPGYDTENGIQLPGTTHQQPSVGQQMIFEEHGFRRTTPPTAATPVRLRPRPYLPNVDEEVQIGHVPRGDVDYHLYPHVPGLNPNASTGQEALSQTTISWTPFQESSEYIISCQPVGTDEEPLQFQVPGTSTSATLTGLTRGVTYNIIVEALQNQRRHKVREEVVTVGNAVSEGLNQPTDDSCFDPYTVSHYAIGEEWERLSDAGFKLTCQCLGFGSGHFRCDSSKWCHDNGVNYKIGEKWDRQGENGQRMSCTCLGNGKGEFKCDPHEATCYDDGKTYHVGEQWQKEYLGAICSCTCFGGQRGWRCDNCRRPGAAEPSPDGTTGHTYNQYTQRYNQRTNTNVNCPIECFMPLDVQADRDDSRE

[8] = molecular target: Fn fibers in PC-3 xenograft tumor tissue of CD1 nude mice (not stated (human PC-3 xenograft in CD1 nude mouse)) (UniProt P11276); remark: listed apart in the source
[9] = molecular target: T1, fibronectin isolated from human plasma (human, UniProt P02751 32-2477, in the fibers 5% of the protein was Cy5-labeled (Cy5-maleimide on the cryptic cysteines at FnIII7 and FnIII15)); test: single Fn fiber binding assay (confocal microscopy, intensity ratio peptide-Alexa488 / Fn-Cy5); Fn fibers (95% unlabeled, 5% Cy5-labeled) manually pulled onto a silicone sheet and relaxed to about 7% strain; blocked with BSA; varying concentrations of peptide for 1 h, washed, imaged; ratio at 10 μM set to 1; conditions: both partners purified
[10] = molecular target: T1, fibronectin isolated from human plasma; test: fluorescence polarisation; anisotropy titration; 100 nM Alexa-488 labeled peptide in PBS, Fn titrated from 0 to 1.4 μM, 20 °C; one-site-binding model; three independent measurements; conditions: both partners purified
[11] = 4h p.i. blocking: corresponding unlabeled peptide (24 nmol) i.v. directly before the radiolabeled peptide, PC-3 grafted mice, mean ± SD

Chain of FnBPA5 (P14738 636-672): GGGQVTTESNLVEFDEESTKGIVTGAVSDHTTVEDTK

## CC[C@H](C)[C@H](NC(=O)[C@@H](NC(=O)[C@H](CCC(=O)O)NC(=O)CNC(=O)[C@H](Cc1ccccc1)NC(=O)[C@H](CC(=O)O)NC(=O)[C@@H](NC(=O)[C@H](CCCCN)NC(=O)[C@@H](NC(=O)CNC(=O)[C@@H](NC(=O)[C@H](CC(C)C)NC(=O)[C@H](CC(=O)O)NC(=O)[C@H](CCC(=O)O)NC(=O)[C@H](CCC(N)=O)NC(=O)[C@H](CCC(=O)O)NC(=O)[C@H](CO)NC(=O)CNC(=O)[C@@H](N)CSC1CC(=O)N(CCNC(=O)CCC(C(=O)O)N2CCN(CC(=O)O)CCN(CC(=O)O)CC2)C1=O)[C@@H](C)O)[C@@H](C)O)C(C)C)[C@@H](C)O)C(=O)N[C@H](C(=O)N[C@H](C(=O)N[C@@H](CC(N)=O)C(=O)N[C@@H](CCC(=O)O)C(=O)N[C@@H](C)C(=O)N[C@H](C(=O)N[C@@H](CCC(=O)O)C(=O)N[C@H](C(=O)N[C@H](C(=O)N[C@H](C(=O)N[C@@H](CO)C(=O)NCC(=O)N[C@@H](CO)C(=O)N[C@H](C(=O)N[C@@H](Cc1c[nH]cn1)C(=O)NCC(=O)N[C@H](C(=O)N[C@@H](CCCCN)C(=O)N[C@H](C(=O)O)C(C)C)[C@@H](C)O)[C@@H](C)O)[C@@H](C)O)C(C)C)[C@@H](C)O)[C@@H](C)O)C(C)C)C(C)C (stereo partly drawn) [111In-scrambled FnBPA5, metal not drawn] (H-C(X1)GSEQEDLTGTKVDFGETIVVNEATETVTSGSTHGTKV-OH; N-terminus and C-terminus assumed)
PC-3-bearing mice [1]; 24 nmol unlabeled peptide pre-injected, 4 h p.i., Student's t test
  effect of pre-injection of unlabeled peptide on accumulation: no significant differences
PC-3-bearing mice [1]; [11]
  Biodistribution with blocking, Blood: 0.07 ± 0.01 IA% / g
  Biodistribution with blocking, Intestines: 0.07 ± 0.05 IA% / g
  Biodistribution with blocking, Kidneys: 128.81 ± 17.44 IA% / g
  Biodistribution with blocking, Liver: 0.08 ± 0.01 IA% / g
  Biodistribution with blocking, Lung: 0.10 ±0.03 IA% / g
  Biodistribution with blocking, Muscle: 0.04 ± 0.00 IA% / g
  Biodistribution with blocking, Pancreas: 1.41 ±1.25 IA% / g
  Biodistribution with blocking, Spleen: 0.18 ± 0.03 IA% / g
  Biodistribution with blocking, Stomach: 0.08 ± 0.04 IA% / g
  Biodistribution with blocking, Tumor: 0.14 ± 0.04 IA% / g
PC-3-bearing mice [2]; ~15 MBq (2.4 nmol, 100 µL PBS) i.v., up to 96 h p.i.
  SPECT/CT distribution: mainly accumulated in the kidneys
PC-3-bearing mice [2]; ~15 MBq i.v., 96 h p.i., post mortem, kidneys removed
  SPECT/CT distribution after kidney removal: no uptake was visible
[3]
  stability in human blood plasma: high stability
[4]
  tissue uptake at 1 h: 163 ± 18 %ID/g
PC-3-bearing mice [5]; 1 h p.i.
  Biodistribution, Blood: 0.26 ± 0.064 IA% / g
  Biodistribution, Bone: 0.15 ± 0.035 IA% / g
  Biodistribution, Heart: 0.12 ± 0.03 IA% / g
  Biodistribution, Intestines: 0.09 ± 0.01 IA% / g
  Biodistribution, Kidneys: 163.70 ± 18.90 IA% / g
  Biodistribution, Liver: 0.10 ± 0.02 IA% / g
  Biodistribution, Lung: 0.19 ± 0.03 IA% / g
  Biodistribution, Muscle: 0.09 ± 0.025 IA% / g
  Biodistribution, Pancreas: 0.78 ± 0.295 IA% / g
  Biodistribution, Spleen: 0.21 ± 0.039 IA% / g
  Biodistribution, Stomach: 0.12 ± 0.013 IA% / g
  Biodistribution, Tumor: 0.27 ± 0.08 IA% / g
PC-3-bearing mice [5]; 4 h p.i.
  Biodistribution, Blood: 0.07 ± 0.008 IA% / g and 0.07 ± 0.01 IA% / g
  Biodistribution, Bone: 0.10 ± 0.01 IA% / g
  Biodistribution, Heart: 0.06 ± 0.006 IA% / g
  Biodistribution, Intestines: 0.04 ± 0.012 IA% / g and 0.04 ± 0.01 IA% / g
  Biodistribution, Kidneys: 151.43 ± 9.056 IA% / g and 151.43 ± 9.06 IA% / g
  Biodistribution, Liver: 0.08 ± 0.026 IA% / g and 0.08 ± 0.03 IA% / g
  Biodistribution, Lung: 0.08 ± 0.005 IA% / g and 0.08 ± 0.01 IA% / g
  Biodistribution, Muscle: 0.04 ± 0.019 IA% / g and 0.04 ± 0.02 IA% / g
  Biodistribution, Pancreas: 0.64 ± 0.549 IA% / g and 0.64 ± 0.55 IA% / g
  Biodistribution, Spleen: 0.13 ± 0.036 IA% / g and 0.13 ± 0.03 IA% / g
  Biodistribution, Stomach: 0.06 ± 0.006 IA% / g
  Biodistribution, Tumor: 0.14 ± 0.02 IA% / g
PC-3-bearing mice [5]; 24 h p.i.
  Biodistribution, Blood: 0.04 ± 0.005 IA% / g
  Biodistribution, Bone: 0.09 ± 0.021 IA% / g
  Biodistribution, Heart: 0.04 ± 0.005 IA% / g
  Biodistribution, Intestines: 0.03 ± 0.00 IA% / g
  Biodistribution, Kidneys: 104.62 ± 9.412 IA% / g
  Biodistribution, Liver: 0.07 ± 0.010 IA% / g
  Biodistribution, Lung: 0.05 ± 0.006 IA% / g
  Biodistribution, Muscle: 0.08 ± 0.026 IA% / g
  Biodistribution, Pancreas: 0.21 ± 0.162 IA% / g
  Biodistribution, Spleen: 0.14 ± 0.048 IA% / g
  Biodistribution, Stomach: 0.04 ± 0.017 IA% / g
  Biodistribution, Tumor: 0.09 ± 0.01 IA% / g
PC-3-bearing mice [5]; 96 h p.i.
  Biodistribution, Blood: 0.02 ± 0.005 IA% / g
  Biodistribution, Bone: 0.13 ± 0.036 IA% / g
  Biodistribution, Heart: 0.04 ± 0.005 IA% / g
  Biodistribution, Intestines: 0.02 ± 0.010 IA% / g
  Biodistribution, Kidneys: 23.63 ± 9.883 IA% / g
  Biodistribution, Liver: 0.05 ± 0.005 IA% / g
  Biodistribution, Lung: 0.04 ± 0.014 IA% / g
  Biodistribution, Muscle: 0.04 ± 0.013 IA% / g
  Biodistribution, Pancreas: 0.06 ± 0.016 IA% / g
  Biodistribution, Spleen: 0.10 ± 0.029 IA% / g
  Biodistribution, Stomach: 0.04 ± 0.029 IA% / g
  Biodistribution, Tumor: 0.16 ± 0.08 IA% / g

## FnBPA5 (from UniProt P14738)
[6]
  Kd: 44.2 nM

## ^natIn-FnBPA5 (cold labeled) / ^111In-FnBPA5 (peptide)
[7]
  change of ^111In-FnBPA5 uptake in the liver 4 h p.i. after pre-injection of a 10-fold excess of unlabeled FnBPA5 (24 nmol): -58.2%
  change of ^111In-FnBPA5 uptake in the tumor 4 h p.i. after pre-injection of a 10-fold excess of unlabeled FnBPA5 (24 nmol): -35.6%
[8]
  tumor uptake of ^111In-FnBPA5 in PC-3-bearing mice, biodistribution at 1, 4, 24 and 96 h p.i. (maximum at 1 h p.i.): 4.74 % IA per g

## {C(Alexa488)}-GQVTTESNLVEFDEESTKGIVTGAVSDHTTVEDTK [FnBPA5-Alexa488]
[9]
  Kd: 28 nM
[10]
  Kd: 75 nM
